{"source": "ChEMBL document CHEMBL1136837", "about": "“Unified QSAR approach to antimicrobials. 4. Multi-target QSAR modeling and comparative multi-distance study of the giant components of antiviral drug-drug complex networks” (Bioorg Med Chem, 2009)", "key": {"Human betaherpesvirus 5": {"tested_on": "Human betaherpesvirus 5", "assay": "Antiviral activity against Human cytomegalovirus", "assay_type": "functional, organism-based", "settings": "Human betaherpesvirus 5"}, "Human alphaherpesvirus 3": {"tested_on": "Human alphaherpesvirus 3", "assay": "Antiviral activity against Varicella zoster virus", "assay_type": "functional, organism-based"}, "Vaccinia virus": {"tested_on": "Vaccinia virus", "assay": "Antiviral activity against Vaccinia virus", "assay_type": "functional, organism-based, Orthopoxvirus vaccinia", "settings": "Orthopoxvirus vaccinia"}, "Human alphaherpesvirus 2": {"tested_on": "Human alphaherpesvirus 2", "assay": "Antiviral activity against Herpes simplex virus 2", "assay_type": "functional, organism-based", "settings": "Human alphaherpesvirus 2"}, "Human alphaherpesvirus 1": {"tested_on": "Human alphaherpesvirus 1", "assay": "Antiviral activity against Herpes simplex virus 1", "assay_type": "functional, organism-based", "settings": "Human alphaherpesvirus 1"}, "[1]": {"tested_on": "unidentified influenza virus", "assay": "Antiviral activity against influenza virus", "assay_type": "functional, organism-based"}, "Hepatitis B virus": {"tested_on": "Hepatitis B virus", "assay": "Antiviral activity against Hepatitis B virus", "assay_type": "functional, organism-based"}, "Hepatitis C virus": {"tested_on": "Hepatitis C virus", "assay": "Antiviral activity against Hepatitis C virus", "assay_type": "functional, organism-based, Hepacivirus hominis", "settings": "Hepatitis C virus"}, "[2]": {"tested_on": "Human immunodeficiency virus 1", "assay": "Antiviral activity against HIV1", "assay_type": "functional, organism-based"}}, "note": "pIC50: −log10 of the molar value.", "data": [{"smiles": "O=c1[nH]c(=O)n([C@H]2C[C@H](O)[C@@H](CO)O2)cc1/C=C/Br", "note": "[BRIVUDINE]", "values": [{"measurement": "pIC50", "setting": "Human betaherpesvirus 5", "value": 3.82}, {"measurement": "pIC50", "setting": "Human alphaherpesvirus 3", "value": 4.54}, {"measurement": "pIC50", "setting": "Vaccinia virus", "value": 3.40}, {"measurement": "pIC50", "setting": "Human alphaherpesvirus 2", "value": 7.12}, {"measurement": "pIC50", "setting": "Human alphaherpesvirus 1", "value": 4.32}]}, {"smiles": "O=C(NO)c1ccccc1", "note": "[BENZOHYDROXAMATE]", "values": [{"measurement": "pIC50", "setting": "[1]", "value": 3.30}]}, {"smiles": "COc1ccccc1Sc1nc(N)nc2c1ncn2CCOCP(=O)(OCC(F)(F)F)OCC(F)(F)F", "values": [{"measurement": "pIC50", "setting": "Hepatitis B virus", "value": 7.10}]}, {"smiles": "CCCCCCCCCCCCCCCCCCOCCOP1(=O)CO[C@@H](Cn2ccc(N)nc2=O)CO1", "note": "(stereo partly drawn)", "values": [{"measurement": "pIC50", "setting": "Vaccinia virus", "value": 6.24}]}, {"smiles": "Nc1ccn([C@@H]2CS[C@H](COP(=O)(O)OP(=O)(O)OP(=O)(O)O)O2)c(=O)n1", "note": "[LAMIVUDINE TRIPHOSPHATE]", "values": [{"measurement": "pIC50", "setting": "Hepatitis B virus", "value": 8.12}]}, {"smiles": "O=C1CCc2ccccc2C(=O)N1O", "values": [{"measurement": "pIC50", "setting": "[1]", "value": 3.00}]}, {"smiles": "O=C(Nc1ccc2c(c1)N(O)C(=O)/C2=C(\\O)c1ccccc1)c1ccc(NS(=O)(=O)c2cccs2)cc1", "values": [{"measurement": "pIC50", "setting": "[1]", "value": 4.32}]}, {"smiles": "Nc1cc(OC[C@H](CO)OCP(=O)(O)O)nc(N)n1", "values": [{"measurement": "pIC50", "setting": "Vaccinia virus", "value": 11.19}, {"measurement": "pIC50", "setting": "Human alphaherpesvirus 2", "value": 10.77}, {"measurement": "pIC50", "setting": "Human alphaherpesvirus 1", "value": 11.32}]}, {"smiles": "O=C(O)C(=O)CCc1ccccc1", "values": [{"measurement": "pIC50", "setting": "[1]", "value": 3.30}, {"measurement": "pIC50", "setting": "Hepatitis C virus", "value": 4.30}]}, {"smiles": "C[C@@H]1C(=O)N(C(=O)C2CC2)[C@H]2CCN(C(=O)[C@@H]3CCCN3C(=O)c3cccc4ccccc34)[C@H]12", "values": [{"measurement": "pIC50", "setting": "Human betaherpesvirus 5", "value": 6.05}]}, {"smiles": "Nc1ncnc2c1ncn2CCOCP(=O)(O)O", "note": "[ADEFOVIR]", "values": [{"measurement": "pIC50", "setting": "Human alphaherpesvirus 1", "value": 10.62}]}, {"smiles": "COC(=O)/C(O)=C/C(=O)c1ccccc1", "values": [{"measurement": "pIC50", "setting": "[1]", "value": 3.30}]}, {"smiles": "COc1ccc(Sc2nc(N)nc3c2ncn3CCOCP(=O)(OCC(F)(F)F)OCC(F)(F)F)cc1", "note": "[ALAMIFOVIR]", "values": [{"measurement": "pIC50", "setting": "Hepatitis B virus", "value": 7.52}]}, {"smiles": "O=C(Nc1cccc(C(=O)O)c1)Nc1ccc2c(C(=O)c3ccccc3)c(O)n(O)c2c1", "values": [{"measurement": "pIC50", "setting": "[1]", "value": 5.52}]}, {"smiles": "C[C@@H]1C(=O)N(C(=O)C2CC2)[C@H]2CCN(C(=O)[C@@H]3CCCN3C(=O)Nc3cccc(Cl)c3)[C@H]12", "values": [{"measurement": "pIC50", "setting": "Human betaherpesvirus 5", "value": 6.19}]}, {"smiles": "CC(C)Oc1cccc(S(=O)(=O)N2CCC[C@H]2C(=O)N2CC[C@H]3[C@H]2[C@H](C)C(=O)N3C(=O)C2CC2)c1", "values": [{"measurement": "pIC50", "setting": "Human betaherpesvirus 5", "value": 4.19}]}, {"smiles": "CC(C)Oc1ccc(Sc2nc(N)nc3c2ncn3CCOCP(=O)(OCC(F)(F)F)OCC(F)(F)F)cc1", "values": [{"measurement": "pIC50", "setting": "Hepatitis B virus", "value": 6.54}]}, {"smiles": "CN(C)c1cc(O)nc(N)n1", "values": [{"measurement": "pIC50", "setting": "Human alphaherpesvirus 3", "value": 9.49}, {"measurement": "pIC50", "setting": "Human alphaherpesvirus 2", "value": 8.59}, {"measurement": "pIC50", "setting": "Human alphaherpesvirus 1", "value": 8.59}]}, {"smiles": "O=c1[nH]c(=O)n([C@H]2C[C@H](O)[C@]3(CO)C[C@H]23)cc1/C=C/Br", "values": [{"measurement": "pIC50", "setting": "Human alphaherpesvirus 2", "value": 3.54}, {"measurement": "pIC50", "setting": "Human alphaherpesvirus 1", "value": 5.19}]}, {"smiles": "O[C@@H]1[C@H](O)[C@@H](n2c(Cl)nc3cc(Cl)c(Cl)cc32)O[C@H]1C(F)(F)F", "values": [{"measurement": "pIC50", "setting": "Human betaherpesvirus 5", "value": 6.35}]}, {"smiles": "O=C(Nc1ccccc1)Nc1ccc2c(C(=O)c3ccccc3)c(O)n(O)c2c1", "values": [{"measurement": "pIC50", "setting": "[1]", "value": 4.54}]}, {"smiles": "CC(C)Oc1ccc(NC(=O)N2CCC[C@H]2C(=O)N2CC[C@H]3[C@H]2[C@H](C)C(=O)N3C(=O)C2CC2)cc1", "values": [{"measurement": "pIC50", "setting": "Human betaherpesvirus 5", "value": 6.74}]}, {"smiles": "O=C1Cc2ccccc2C(=O)N1O", "values": [{"measurement": "pIC50", "setting": "[1]", "value": 3.15}]}, {"smiles": "COc1cccc(Sc2nc(N)nc3c2ncn3CCOCP(=O)(OCC(F)(F)F)OCC(F)(F)F)c1", "values": [{"measurement": "pIC50", "setting": "Hepatitis B virus", "value": 7.40}]}, {"smiles": "Nc1cc(OCCOCP(=O)(O)O)nc(N)n1", "values": [{"measurement": "pIC50", "setting": "Human alphaherpesvirus 2", "value": 10.04}, {"measurement": "pIC50", "setting": "Human alphaherpesvirus 1", "value": 10.61}]}, {"smiles": "Cc1ccc(Sc2nc(N)nc3c2ncn3CCOCP(=O)(OCC(F)(F)F)OCC(F)(F)F)cc1", "values": [{"measurement": "pIC50", "setting": "Hepatitis B virus", "value": 7.22}]}, {"smiles": "Cc1cn([C@@H]2O[C@H](CO)[C@@H](O)[C@@H]2F)c(=O)[nH]c1=O", "note": "[5-METHYL-2'-FLUOROARAURACIL]", "values": [{"measurement": "pIC50", "setting": "Hepatitis B virus", "value": 6.08}]}, {"smiles": "O=C1c2ccccc2C(=O)N1O", "values": [{"measurement": "pIC50", "setting": "[1]", "value": 3.30}]}, {"smiles": "Nc1nc(Sc2ccc([N+](=O)[O-])cc2)c2ncn(CCOCP(=O)(OCC(F)(F)F)OCC(F)(F)F)c2n1", "values": [{"measurement": "pIC50", "setting": "Hepatitis B virus", "value": 6.28}]}, {"smiles": "CCC(=O)c1c(O)n(O)c2cc(NC(=O)Nc3ccc(Cl)cc3)ccc12", "values": [{"measurement": "pIC50", "setting": "[1]", "value": 4.42}]}, {"smiles": "C[C@@H]1C(=O)N(C(=O)C2CC2)[C@H]2CCN(C(=O)[C@@H]3CCCN3C(=O)Nc3ccccc3)[C@H]12", "values": [{"measurement": "pIC50", "setting": "Human betaherpesvirus 5", "value": 5.85}]}, {"smiles": "Nc1ccn(C[C@@H](CO)OCP(=O)(O)O)c(=O)n1", "note": "(stereo in doubt; form 2) [CIDOFOVIR]", "values": [{"measurement": "pIC50", "setting": "Vaccinia virus", "value": 4.49}]}, {"smiles": "Nc1nc(Sc2ccc3ccccc3c2)c2ncn(CCOCP(=O)(OCC(F)(F)F)OCC(F)(F)F)c2n1", "values": [{"measurement": "pIC50", "setting": "Hepatitis B virus", "value": 7.05}]}, {"smiles": "O=C(N/C(C(=O)N1CCCCC1)=C(/Cl)c1ccccc1)c1ccccc1", "values": [{"measurement": "pIC50", "setting": "Hepatitis B virus", "value": 4.67}]}, {"smiles": "CCCCOc1ccc(Sc2nc(N)nc3c2ncn3CCOCP(=O)(OCC(F)(F)F)OCC(F)(F)F)cc1", "values": [{"measurement": "pIC50", "setting": "Hepatitis B virus", "value": 6.00}]}, {"smiles": "O=c1c2nccnc2ncn1O", "values": [{"measurement": "pIC50", "setting": "[1]", "value": 3.30}]}, {"smiles": "CC(=O)OC[C@H]1S[C@@H](n2nc(C)c(=S)[nH]c2=O)C[C@@H]1OC(C)=O", "values": [{"measurement": "pIC50", "setting": "Human alphaherpesvirus 2", "value": 5.10}, {"measurement": "pIC50", "setting": "Human alphaherpesvirus 1", "value": 5.10}]}, {"smiles": "C[C@@H]1C(=O)N(C(=O)C2CC2)[C@H]2CCN(C(=O)[C@@H]3CCCN3C(=O)Nc3cccc4ccccc34)[C@H]12", "values": [{"measurement": "pIC50", "setting": "Human betaherpesvirus 5", "value": 6.19}]}, {"smiles": "Nc1nc(Sc2ccc(OC(F)(F)F)cc2)c2ncn(CCOCP(=O)(OCC(F)(F)F)OCC(F)(F)F)c2n1", "values": [{"measurement": "pIC50", "setting": "Hepatitis B virus", "value": 7.22}]}, {"smiles": "C[C@@H]1C(=O)N(C(=O)C2CC2)[C@H]2CCN(C(=O)[C@@H]3CCCN3C(=O)Nc3ccc(Cl)cc3)[C@H]12", "values": [{"measurement": "pIC50", "setting": "Human betaherpesvirus 5", "value": 6.59}]}, {"smiles": "CC(C)OP(=O)(COCCOc1cc(N)ncn1)OC(C)C", "values": [{"measurement": "pIC50", "setting": "Human alphaherpesvirus 3", "value": 9.82}, {"measurement": "pIC50", "setting": "[2]", "value": 5.22}, {"measurement": "pIC50", "setting": "Human alphaherpesvirus 2", "value": 8.92}, {"measurement": "pIC50", "setting": "Human alphaherpesvirus 1", "value": 8.92}]}, {"smiles": "CCCc1nn([C@H]2C[C@H](O)[C@@H](CO)S2)c(=O)[nH]c1=O", "values": [{"measurement": "pIC50", "setting": "Human betaherpesvirus 5", "value": 4.40}]}, {"smiles": "O=C1Cc2ccccc2CN1O", "values": [{"measurement": "pIC50", "setting": "[1]", "value": 4.00}]}]}
